Measured values as given in ChEMBL document CHEMBL5584307, “Discovery of a Potent and Orally Bioavailable Xanthine Oxidase/Urate Transporter 1 Dual Inhibitor as a Potential Treatment for Hyperuricemia and Gout” (J Med Chem, 2024).
Values belong to the compound of their own block, whether it stands above or below them.

How the values were obtained:
[1] = molecular target: T1, Xanthine dehydrogenase/oxidase (Homo sapiens, UniProt P47989); experiment: Inhibition of xanthine oxidase (unknown origin) by absorbance based assay
T1 sequence (P47989 whole entry): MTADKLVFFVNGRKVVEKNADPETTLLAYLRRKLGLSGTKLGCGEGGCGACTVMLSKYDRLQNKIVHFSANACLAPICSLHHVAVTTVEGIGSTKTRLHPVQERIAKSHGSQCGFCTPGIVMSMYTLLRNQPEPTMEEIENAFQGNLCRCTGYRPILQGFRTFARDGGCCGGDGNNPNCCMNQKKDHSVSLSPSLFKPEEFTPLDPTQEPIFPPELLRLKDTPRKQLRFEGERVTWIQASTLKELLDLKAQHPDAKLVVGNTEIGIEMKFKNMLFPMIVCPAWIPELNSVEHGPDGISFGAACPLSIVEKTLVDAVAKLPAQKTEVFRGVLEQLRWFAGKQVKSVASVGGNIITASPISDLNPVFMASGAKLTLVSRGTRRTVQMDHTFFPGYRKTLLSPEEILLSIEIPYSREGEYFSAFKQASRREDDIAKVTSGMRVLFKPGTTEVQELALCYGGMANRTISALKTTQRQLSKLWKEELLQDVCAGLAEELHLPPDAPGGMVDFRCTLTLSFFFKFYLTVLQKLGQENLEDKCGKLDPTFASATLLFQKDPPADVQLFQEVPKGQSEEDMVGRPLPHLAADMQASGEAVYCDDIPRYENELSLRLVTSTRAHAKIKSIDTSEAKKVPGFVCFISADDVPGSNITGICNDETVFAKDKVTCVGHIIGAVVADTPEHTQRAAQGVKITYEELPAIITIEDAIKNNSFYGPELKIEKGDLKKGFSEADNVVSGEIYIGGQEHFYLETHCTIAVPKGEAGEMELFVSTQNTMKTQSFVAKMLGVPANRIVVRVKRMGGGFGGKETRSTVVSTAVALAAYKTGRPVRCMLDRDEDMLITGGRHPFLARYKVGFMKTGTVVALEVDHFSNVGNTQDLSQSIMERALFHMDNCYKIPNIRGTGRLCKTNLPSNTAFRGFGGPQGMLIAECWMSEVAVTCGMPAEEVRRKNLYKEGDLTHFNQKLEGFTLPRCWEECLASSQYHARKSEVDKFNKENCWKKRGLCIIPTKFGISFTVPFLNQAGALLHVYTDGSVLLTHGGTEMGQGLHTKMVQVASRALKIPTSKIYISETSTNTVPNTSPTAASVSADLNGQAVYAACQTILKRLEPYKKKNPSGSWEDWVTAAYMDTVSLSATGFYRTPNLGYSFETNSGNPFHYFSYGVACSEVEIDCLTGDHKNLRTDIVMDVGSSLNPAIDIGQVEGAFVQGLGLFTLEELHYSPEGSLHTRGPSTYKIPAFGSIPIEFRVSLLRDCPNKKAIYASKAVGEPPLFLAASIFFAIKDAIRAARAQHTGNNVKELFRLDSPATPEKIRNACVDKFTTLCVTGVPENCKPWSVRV

[2] = molecular target: T2, Solute carrier family 22 member 12 (Homo sapiens, UniProt Q96S37); experiment: Inhibition of URAT1 (unknown origin) by absorbance based assay
T2 sequence (Q96S37 whole entry): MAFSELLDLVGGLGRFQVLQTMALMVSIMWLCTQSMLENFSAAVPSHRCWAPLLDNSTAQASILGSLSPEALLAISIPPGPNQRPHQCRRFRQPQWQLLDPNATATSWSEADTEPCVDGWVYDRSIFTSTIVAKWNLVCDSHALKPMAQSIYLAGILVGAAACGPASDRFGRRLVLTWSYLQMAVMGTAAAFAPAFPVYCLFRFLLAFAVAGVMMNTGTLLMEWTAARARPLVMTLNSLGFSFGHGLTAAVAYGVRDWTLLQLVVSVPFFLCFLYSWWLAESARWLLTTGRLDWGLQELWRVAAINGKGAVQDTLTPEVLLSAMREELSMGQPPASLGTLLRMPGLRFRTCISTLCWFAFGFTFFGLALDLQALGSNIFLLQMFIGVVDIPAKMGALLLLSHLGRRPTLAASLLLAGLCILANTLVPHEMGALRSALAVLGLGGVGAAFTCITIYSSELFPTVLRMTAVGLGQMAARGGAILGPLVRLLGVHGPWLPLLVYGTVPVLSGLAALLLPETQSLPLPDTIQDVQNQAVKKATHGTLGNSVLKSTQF

[3] = tested on: Sapajus apella; experiment: Urate lowering effect in Tufted capuchin monkey assessed as serum xanthine level at 2 mg/kg/day, po qd for 3 days consecutively; type: functional; conditions: time 3 day
[4] = tested on: Sapajus apella; experiment: Urate lowering effect in Tufted capuchin monkey assessed as urine xanthine level at 2 mg/kg/day, po qd for 3 days consecutively; type: functional; conditions: time 3 day
[5] = molecular target: T2, Solute carrier family 22 member 12; experiment: Inhibition of URAT1 (unknown origin) at 10 uM by absorbance based assay
[6] = tested on: Sapajus apella; conditions: dose 2.0 mg/kg/day, route po, time 3.0 day
[7] = Half life in overnight-fasted Sprague-Dawley rat at 5 mg/kg, po measured upto 24 hrs by LC-MS/MS analysis; type: ADME, organism-based; conditions: in vivo
[8] = Volume of distribution at steady state in overnight-fasted Sprague-Dawley rat at 5 mg/kg, po or 1 mg/kg, iv measured upto 24 hrs by LC-MS/MS analysis; type: ADME, organism-based; conditions: in vivo
[9] = AUC (last) in overnight-fasted Sprague-Dawley rat at 5 mg/kg, po measured upto 24 hrs by LC-MS/MS analysis; type: ADME, organism-based; conditions: in vivo
[10] = Cmax in overnight-fasted Sprague-Dawley rat at 5 mg/kg, po measured upto 24 hrs by LC-MS/MS analysis; type: ADME, organism-based; conditions: in vivo
[11] = AUC (last) in overnight-fasted Sprague-Dawley rat at 1 mg/kg, iv measured upto 24 hrs by LC-MS/MS analysis; type: ADME, organism-based; conditions: in vivo
[12] = Clearance in overnight-fasted Sprague-Dawley rat at 1 mg/kg, iv measured upto 24 hrs by LC-MS/MS analysis; type: ADME, organism-based; conditions: in vivo
[13] = Oral bioavailability in overnight-fasted Sprague-Dawley rat at 5 mg/kg measured upto 24 hrs by LC-MS/MS analysis; type: ADME, organism-based; conditions: in vivo
[14] = tested on: Sapajus apella; experiment: Urate lowering effect in Tufted capuchin monkey assessed as fraction excretion of uric acid at 30 mg/kg/day, po qd for 3 days consecutively relative to control; type: functional; conditions: time 3 day
[15] = tested on: Sapajus apella; conditions: dose 30.0 mg/kg/day, route po, time 3.0 day
[16] = molecular target: T1, Xanthine dehydrogenase/oxidase; experiment: Inhibition of xanthine oxidase (unknown origin) at 10 uM by absorbance based assay

IC50 [1]: 37 nM | IC50 [2]: 2200 nM
SMILES: N#Cc1cccc(-c2ccc(C(=O)O)c(O)c2)c1

IC50 [1]: > 10000 nM | IC50 [2]: > 10000 nM
SMILES: CC(C)COc1ccc(-c2cccc(O)c2C(=O)O)cc1C#N

IC50 [1]: 27 nM | IC50 [2]: > 10000 nM
SMILES: N#Cc1cc(-c2ccc(C(=O)O)c(O)c2)c2cc[nH]c2c1

inhibition (INH) [5]: Not Active
SMILES: Cc1nc(-c2ccc(OCC(C)C)c(C#N)c2)sc1C(=O)O [FEBUXOSTAT]
Activity [3]: 6.61 µg·h/mL | Activity [4]: 32.1 µg·h/mL | AUC [6]: 478000 ng·h/mL

IC50 [1]: 388 nM | IC50 [2]: 3190 nM
SMILES: O=C(O)c1ccc(-c2cc(C(F)(F)F)cc3ccoc23)cc1O

IC50 [1]: 347 nM | IC50 [2]: 104 nM
SMILES: N#Cc1cc(-c2ccc(C(=O)O)c(O)c2)c2oc(C(F)(F)F)cc2c1

IC50 [1]: 18 nM | IC50 [2]: 8300 nM
SMILES: CC(C)COc1ccc(-c2ccc(C(=O)O)c(O)c2)cc1C#N

IC50 [1]: 591 nM | IC50 [2]: 598 nM
SMILES: N#Cc1cc(-c2ccc(C(=O)O)cc2)c2occc2c1

half-life [7]: 3.05 h | IC50 [2]: 37 nM | Vdss [8]: 0.4 L/kg | AUC(0-t) at 24 h [9]: 28100 ng·h/mL | Cmax [10]: 3700 ng/mL | AUC(0-t) at 24 h [11]: 5480 ng·h/mL | clearance [12]: 2.77 mL/min/kg | bioavailability [13]: 93.9%
SMILES: N#Cc1cc(-c2ccc(C(=O)O)c(O)c2)c2oc(Cl)cc2c1

IC50 [1]: > 10000 nM | IC50 [2]: 3750 nM
SMILES: COc1cc(-c2cc(C#N)cc3ccoc23)ccc1C(=O)O

IC50 [1]: 101 nM | IC50 [2]: 3640 nM
SMILES: N#Cc1cc(-c2ccc(C(=O)O)c(O)c2)c2ncsc2c1

half-life [7]: 1.86 h | Vdss [8]: 0.4 L/kg | AUC(0-t) at 24 h [9]: 2430 ng·h/mL | Cmax [10]: 2050 ng/mL | AUC(0-t) at 24 h [11]: 902 ng·h/mL | clearance [12]: 18.6 mL/min/kg | bioavailability [13]: 55.8%
SMILES: N#Cc1cc(-c2ccc(C(=O)O)c(O)c2)c2ccsc2c1

IC50 [1]: 39 nM | half-life [7]: 2.66 h | Vdss [8]: 0.155 L/kg | AUC(0-t) at 24 h [9]: 43200 ng·h/mL | Cmax [10]: 6550 ng/mL | AUC(0-t) at 24 h [11]: 8530 ng·h/mL | clearance [12]: 1.93 mL/min/kg | bioavailability [13]: 99.5%
SMILES: N#Cc1cc(-c2ccc(C(=O)O)c(O)c2)c2ccoc2c1

half-life [7]: 3.45 h | Vdss [8]: 0.399 L/kg | AUC(0-t) at 24 h [9]: 44400 ng·h/mL | Cmax [10]: 6830 ng/mL | AUC(0-t) at 24 h [11]: 6860 ng·h/mL | clearance [12]: 2.4 mL/min/kg | bioavailability [13]: 131%
SMILES: N#Cc1cc(-c2ccc(C(=O)O)c(O)c2)c2occc2c1

inhibition (INH) [16]: Not Active
SMILES: CCc1oc2ccccc2c1C(=O)c1cc(Br)c(O)c(Br)c1 [BENZBROMARONE]
Activity [14]: 42.3% | AUC [15]: 894000 ng·h/mL

IC50 [1]: 133 nM | IC50 [2]: 444 nM
SMILES: N#Cc1cc(-c2ccc(C(=O)O)c(O)c2)c2sccc2c1

IC50 [1]: 8 nM | IC50 [2]: 1650 nM
SMILES: N#Cc1cc(-c2ccc(C(=O)O)c(O)c2)c2occ(C(F)(F)F)c2c1

IC50 [1]: 560 nM | IC50 [2]: 107 nM
SMILES: N#Cc1cc2c(c(-c3ccc(C(=O)O)c(O)c3)c1)CCC2

IC50 [1]: 46 nM | IC50 [2]: 352 nM
SMILES: N#Cc1cc2c(c(-c3ccc(C(=O)O)c(O)c3)c1)OCC2

IC50 [1]: 61 nM | IC50 [2]: 623 nM
SMILES: Cc1cc2cc(C#N)cc(-c3ccc(C(=O)O)c(O)c3)c2o1
